Laboratory results from patent US8580940B2, “Photoporphyrinogen oxidase having activity of imparting resistance against acifluorfen and gene thereof” (Nippon Soda Co., Ltd., priority 2005, dated 2013).

Key:
Amaranthus lividus = experiment: Herbicidal activity, foliage treatment; format: in vivo; details: foliage spray, two weeks after the treatment, index 0-10
Procedure: Seeds of Amaranthus lividus were sowed on the surface of soil filled in a pot (200 cm^2) followed by covering with a little soil and then grown to 5 to 10 cm of plant length in a greenhouse. Each of water-diluted test chemical solutions was sprayed to foliage part of Amaranthus lividus with a small spray in an amount corresponding to the spray amount of 1000 litter/ha to achieve predetermined amount of agent. Cultivation was carried out in a greenhouse. Then herbicidal effect on Amaranthus lividus was examined two weeks after the treatment according to an examination criterion below.
Values 1, 3, 5, 7, and 9 indicate the intermediate value of […], 4 and 6, 6 and 8, and 8 and 10 respectively.

[1] = system: AT strain (transgenic Synechocystis strain expressing Arabidopsis-derived protoporphyrinogen oxidase); experiment: microbe, parasite or virus in culture; format: cell-based, Synechocystis PCC6803; details: for IC50: Synechocystis, 144 h, read-out: pI50 Value AT strain
Procedure: (§1) The AT strain obtained in Example 1 and ATΔslr1790 strain, in which slr1790 gene was disrupted by the method described in Example 4, were used. Aforedescribed BG11 liquid medium was employed. With a view to preventing reverse mutation or loss of the gene, either chloramphenicol or kanamycin was added to the medium at a final concentration of 25 μM for the AT strain and ATΔslr1790 strain, respectively, because a chloramphenicol resistance gene is introduced with protoporphyrinogen oxidase into AT strain and a kanamycin resistance gene is introduced into ATΔslr1790 strain when disrupting the gene. AT strain and ATΔslr1790 strain were precultured with shaking in BG11 liquid medium, collected during the growth phase, and suspended in fresh BG11 liquid medium supplemented with an antibiotic so that A730 became 0.1, which was used for investigation.
(§2) An active pharmaceutical ingredient of a test chemical was dissolved in DMSO and added to wells so that final concentration of agent became from 1.0×10^−4 M to 1.0×10^−9.5 M for each well (the final concentration of DMSO is 0.5%). The test includes shaking culture using a 96-well plate in a scale of 100 μl in each well at 30° C. of incubation temperature under 1000 lux of light intensity. Turbidity was measured 6 days after the start of the test and compared with solvent sample to calculate pI50 value. pI50 value=−log(concentration to inhibit 50% activity(M)) (Activity of Herbicidal Treatment)

[2] = system: transformed Arabidopsis slr lineage (slr1790-introduced); experiment: Acifluorfen resistance test, degree of necrosis on leaves, slr1790-introduced transformants; format: in vivo; details: acifluorfen 10 μM, 5 μl dropped onto leaves, 7 days after treatment, by eye on a 0 to 5 scale (5 complete death, 0 no effect)
Procedure: (§3) For transformants in which gene introduction was confirmed, acifluorfen resistance effect was tested. Acifluorfen was prepared as emulsion to contain 4% of effective component by mixing and solubilizing dimethylformamide and polyoxyethylene sorbitan surfactant. This was diluted with water to make the final concentration of acifluorfen 10 μM, 5 μl of which was dropped using a micropippet onto leaves of Arabidopsis wild type and transformed Arabidopsis slr lineage, in which gene introduction was confirmed, both grown to 1 to 2 cm in height in a growth chamber.
(§4) Study was continued until 7 days after the treatment with the chemicals and degree of necrosis was evaluated by eye (on a 0 to 5 scale, 0 means no effect).
(§5) Evaluation was done by eye on a 0 to 5 scale, with 5 meaning complete death and 0 meaning no effect.

[3] = system: ATΔslr1790 strain (AT strain in which slr1790 gene was disrupted); experiment: Test for inhibitory potency of protoporphyrinogen oxidase inhibitor, growth (turbidity) of ATΔslr1790 strain; format: cell-based, Synechocystis PCC6803; details: turbidity 6 days after start, 30° C., 1000 lux, BG11 liquid medium, pI50 = -log(concentration to inhibit 50% activity (M)); for IC50: Synechocystis, 144 h
Procedure: as §1, §2

Arabidopsis wild type = experiment: Acifluorfen resistance test, degree of necrosis on leaves, wild type; format: in vivo; details: acifluorfen 10 μM, 5 μl dropped onto leaves, 7 days after treatment, by eye on a 0 to 5 scale (5 complete death, 0 no effect)
Procedure: as §3, §4, §5

Structure (SMILES)	Herbicidal activity (foliage treatment) (herbicide index for Amaranthus lividus, 16 g ai/ha) (Amaranthus lividus)	IC50 [1] [µM]	degree of necrosis, slr 52 ([2]; transformant slr 52)	degree of necrosis, slr 146 ([2]; transformant slr 146)	IC50 [3] [M]	degree of necrosis, Arabidopsis Wild Type (Arabidopsis wild type)	pI50 Value AT strain ([1]; turbidity 6 days after start, 30° C., 1000 lux, BG11 liquid medium, pI50 = -log(concentration to inhibit 50% activity (M)))	pI50 Value ATΔslr1790 strain [3]
O=C(O)c1cc(Oc2ccc(C(F)(F)F)cc2Cl)ccc1[N+](=O)[O-] [acifluorfen]	7	> 100	1	1	3.16e-05	4	–	–
c1cc[n+]2c(c1)-c1cccc[n+]1CC2 [diquat]	–	6.31	–	–	1e-05	–	–	–
C#CCN1C(=O)COc2cc(F)c(N3C(=O)C4=C(CCCC4)C3=O)cc21 [flumioxazine]	10 (100%)	–	–	–	–	–	4>	6.7
CCOC(=O)COc1cc(-c2nn(C)c(OC(F)F)c2Cl)c(F)cc1Cl [pyraflufenethyl, pyraflufen-ethyl]	10 (100%)	> 100	–	–	2.51e-07	–	–	–
